Tests used:
SKOV-3 (human ovarian) = assay: SRB cytotoxicity assay, SK-OV-3; assay type: cell-based; details: 72 hours, read-out: ED50 SK-OV-3
Experimental: (§1) Human tumor cells, including MCF-7 (human breast adenomatous tumor), MCF-7/DOX (adriamycin resistant cell strain), MRS-SA (human uterine sarcoma), MES-SA/DX5 (adriamycin resistant cell strain), A 549 (human non-small cell lung), SKOV-3 (human ovarian), SKMEL-2 (human melanoma), XF-498 (human CNS), HCT-15 (human colon) were incubated at 37° C. in the presence of 5% CO2 using a DMEM culture medium. The respective cells were seeded into each well of 96-well plates at a concentration of 2×10^3˜5×10^3 cells/well. […] Each cell line of the resultant plates was fixed with trichloroacetic acid (TCA), stained with 0.4% SRB solution and rinsed with 1% acetic acid. Thereafter, the dye was dissolved in 10 mM Tris base to measure the optical density (OD) at 520 nm.

ICR mice [1] = assay: Acute (intravenous administration) toxicity assay; details: for Days for the test (death) Total: deaths/mice
[2] = system: MES-SA (human uterine sarcoma); assay: SRB cytotoxicity assay, MES-SA; assay type: cell-based; details: 72 h, read-out: ED50 MES-SA
Experimental: as §1

XF-498 (human CNS) = assay: SRB cytotoxicity assay, XF498; assay type: cell-based; details: 72 hours, read-out: ED50 XF498
Experimental: as §1

ICR mice [3] = assay: Oral administration toxicity assay; details: for Days for the test (death) Total: deaths/mice

For COc1cc2c(c(OC)c1OC)-c1ccc(OC)c(=O)cc1[C@@H](NC(=O)c1cccc(CO[N+](=O)[O-])c1)CC2 [Compound 6, 3-nitrooxymethyl-N-(1,2,3,10-tetramethoxy-9-oxo-5,6,7,9-tetrahydro-benzo[a]heptarene-7-yl)-benzamide], the EC50 (SKOV-3 (human ovarian)) was 0.2 nM, the “Days for the test (death) Total” value (ICR mice [1]; 5 mg/kg) was 0/5 and the “Days for the test (death) Total” value (ICR mice [1]; 10 mg/kg) was 0/5. The “Days for the test (death) Total” value (ICR mice [1]; 25 mg/kg) was 0/2, the “Days for the test (death) 1” value (ICR mice [1]; 50 mg/kg, day 1) was 3 and the “Days for the test (death) Total” value (ICR mice [1]; 50 mg/kg) was 3/3. The EC50 [2] was 0.2 nM, the EC50 (XF-498 (human CNS)) was 0.1 nM and the “Days for the test (death) Total” value (ICR mice [3]; 2 mg/kg) was 0/5. For the same molecule, the “Days for the Test (death) 4” value (ICR mice [3]; 5 mg/kg, day 4) was 1, the “Days for the test (death) Total” value (ICR mice [3]; 5 mg/kg) was 1/5 and the “Days for the test (death) 2” value (ICR mice [3]; 10 mg/kg, day 2) was 1. For the same molecule, the “Days for the Test (death) 3” value (ICR mice [3]; 10 mg/kg, day 3) was 1 and the “Days for the test (death) Total” value (ICR mice [3]; 10 mg/kg) was 2/5.
